Experimental data: patent US20240247253A1, “PRODUCTION METHOD OF POLYPEPTIDE, TAG, EXPRESSION VECTOR, EVALUATION METHOD OF POLYPEPTIDE, PRODUCTION METHOD OF NUCLEIC ACID DISPLAY LIBRARY, AND SCREENING METHOD” (FUJIFILM Corporation, priority 2021, published 2024)

Tested on: cell-free peptide synthesis system derived from Escherichia coli
Experiment: Cell-free biosynthesis of the integrin binding peptide fusion protein with N-terminal tag, 1 hour reaction, amount measured by ELISA
Format: biochemical
From the text: In the cell-free peptide synthesis system derived from Escherichia coli, the effect of the VKKX tag on the biosynthesis amount of the polypeptide was examined. As a polypeptide to be biosynthesized, an integrin binding peptide containing cysteine and chloroacetyl lysine was selected. In this polypeptide, a thiol group of cysteine and a chloroacetyl group of chloroacetyl lysine spontaneously form a thioether bond to become a cyclic polypeptide.
A fusion protein in which an integrin binding peptide, a Myc tag, and a HiBiT tag were linked in this order was designed. As a spacer, Gly-Gly-Ser was inserted between the integrin binding peptide and the Myc tag and between the Myc tag and the HiBiT tag. The amino acid sequence of this fusion protein is SEQ ID NO: 5, and the base sequence encoding this fusion protein is SEQ ID NO: 6. In SEQ ID NO: 5, the integrin binding peptide ranges to the amino acid at the twelfth position (that is, alanine) from an N-terminal, and the amino acid at eleventh position from the N-terminal is chloroacetyl lysine. The triplet TAG at the positions 31 to 33 from the 5′ terminal of the base sequence set forth in SEQ ID NO: 6 was assigned to the codon of chloroacetyl lysine. The end of the base sequence set forth in SEQ ID NO: 6 is the stop codon TAA.
A base sequence encoding a tagged fusion protein in which methionine, a VKKX tag (any of SEQ ID nOs: 7 to 52), and a fusion protein (SEQ ID NO: 5) were linked in this order was designed. In this base sequence, a base sequence (any of SEQ ID nOs: 53 to 98) encoding a VKKX tag is arranged immediately after the start codon ATG, and a base sequence encoding a fusion protein immediately after the base sequence (SEQ ID NO: 6) encoding the VKKX tag is arranged.
As a control example for evaluating the effect of the VKKX tag, a base sequence in which a base sequence (SEQ ID NO: 6) encoding a fusion protein arranged immediately after the start codon ATG was designed.
In order to translate chloroacetyl lysine which is an unnatural amino acid, a tRNA in which the anticodon was CUA and paired with the UAG codon of mRNA was prepared. This tRNA was aminoacylated with an N-chloroacetyl lysine hosphoro 2′ deoxyribocytidylylriboadenosine (pdCpA) ester. This aminoacyl tRNA is referred to as an Aminoacyl tRNA (1).
The cell-free biosynthesis of the polypeptide was carried out in a translation solution containing a template DNA, PUREfrex 2.0 (GeneFrontier, PF201-0.25-5), and Aminoacyl tRNA (1). 1.25 μL (62.5 ng) of the template DNA prepared to 50 ng/μL, 2.5 μL of PUREfrex 2.0 Solution I, 0.25 μL of Solution II, 0.5 μL of Solution III, and 0.5 μL of Aminoacyl tRNA (1) were mixed and mixture was subjected to a reaction at 37° ° C. for 1 hour.
The amount of the biosynthesized polypeptide was measured by ELISA. 50 ng of Recombinant Human Integrin αVβ3 (R&D systems, 3050-AV-050) was immobilized in each well of a 96-well plate and blocked with Blocker Casein in PBS (Thermo, 37528), and then a cell-free biosynthesis solution diluted with Can Get Signal Immunoreaction Enhancer Solution I (TOYOBO, NKB-101) containing 5 mmol/L MgCl2 was added thereto, and the mixture was subjected to a reaction at room temperature for 3 hours. After washing with 5 mmol/L MgCl2/0.05% Tween 20-containing phosphate buffered saline (PBS), an anti-Myc antibody (Cell Signaling, 14038S) diluted with Can Get Signal Immunoreaction Enhancer Solution II (TOYOBO, NKB-101) was added thereto, and the mixture was subjected to a reaction at room temperature for 2 hours. After washing with PBS containing 5 mmol/L MgCl2/0.05% Tween 20, Super Signal ELISA Femto Substrate (Thermo, 37075) was added thereto, and the luminescence was measured. The amount of the fusion protein in the cell-free biosynthesis solution was calculated based on a calibration curve created from the fusion protein having a known concentration. The luminescence measurement was performed twice, and the average value of the amounts of the fusion protein was calculated. […]

Substance | increase of biosynthesis amount of the fusion protein (Example 1, versus control without tag, fusion protein SEQ ID NO: 5, 1 hour) [times] | Biosynthesis amount of fusion protein (relative value, control example without tag = 1, fusion protein SEQ ID NO: 5, 37° C. for 1 hour, average of two measurements) | Biosynthesis amount of fusion protein (tag encoded by base sequence SEQ ID NO 73, GC content 17%, control without tag = 1) | Biosynthesis amount of fusion protein (tag encoded by base sequence SEQ ID NO 111, GC content 33%, control without tag = 1) | Biosynthesis amount of fusion protein (tag encoded by base sequence SEQ ID NO 112, GC content 50%, control without tag = 1) | Biosynthesis amount of fusion protein (tag encoded by base sequence SEQ ID NO 108, GC content 8%, control without tag = 1) | Biosynthesis amount of fusion protein (tag encoded by base sequence SEQ ID NO 109, GC content 25%, control without tag = 1) | Biosynthesis amount of fusion protein (tag encoded by base sequence SEQ ID NO 110, GC content 42%, control without tag = 1)
SEQ ID NO: 27: VKKX tag, amino acid sequence VKKTKT (VKKX Tag) | 4.9 | 4.94 | 4.94 | 3.83 | 3.77 |  |  | 
SEQ ID NO: 107: tag consisting of an amino acid sequence of SKIK, disclosed in WO2016/204198A; comparative control (SKIK Tag) [reference compound] |  |  |  |  |  | 3.79 | 4.18 | 1.46
